Data on seven compounds can be found in patent EP0409176B1, “Method and materials for detecting pathology from alterations in estrogen metabolism” (THE ROCKEFELLER UNIVERSITY, priority 1989, dated 1991).

In one series the test system is 2OHE1 antiserum. In words: Radioimmunoassay cross-reactivity of the anti-2OHE1 antiserum. To be noted: antiserum raised against bovine serum albumin linked to 2-hydroxyestrone 17-carboxymethyloxime. In kind it is binding. The source says: Antibodies to 16α-OHE1, E2 and E3 were raised as described previously (Fishman, J., et al., SCIENCE, 204:1089-1091 (1979); Ikegawa, S., et al., J. STEROID BIOCHEM., 18:329-332 (1983)), while the anti-2OHE1 antiserum was a gift of Dr. Kanbegawa (Teikyo University, Japan) and was raised against bovine serum albumin linked to 2-hydroxyestrone 17-carboxymethyloxime. Cross-reactivities of the 2OHE1 antiserum with E1, E2 and E3, 16αOHE1, 2MeOE1, and 2-hydroxyestradiol (2OHE2) were 1.3%, 0.6%, 0.01%, 0.03%, 0.11% and 1.7%, respectively.
Each urine sample (1 or 2 mL) contained approximately 3000 dpm of […] steroid used to determine recovery, and was applied to a C18 Sep-pak cartridge followed by elution with 5 mL of methanol. The eluate was dried in vacuo and hydrolyzed with Glusulase for 12 h at 37°C. The hydrolyzed steroids were again extracted on a C18 Sep-pak cartridge and eluted with 5 mL of methanol. Aliquots of this final eluate were taken for determination of recovery (averaging 90-95%) and duplicate radioimmunoassay (100 µL). In order to prevent auto-oxidation of catecholestrogens, ascorbic acid (1%) was used in all stages of the assay. Radiolabeled steroids and antisera were incubated with the specimens overnight at 4°C, and radioactivity was measured with a Packard model 3000 scintillation counter. Estrogen levels are expressed relative to urinary creatinine concentration. Statistical analysis was performed with an unpaired t-test. Unless otherwise specified, all values are reported as means ± SEM.

Series [1] has as its system cytochrome P-450-dependent metabolism of estradiol. To be noted: cited from earlier work.
Series [2] has as its system 16α-hydroxylation of estradiol. To be noted: 800 mg per dose twice daily oral for two weeks; nine normal male volunteers; radiometric analysis; cited from earlier work.
Series [3] deals with cytochrome P-450-dependent metabolism of estradiol. The note with it: 800 mg per dose twice daily oral for two weeks; nine normal male volunteers; P<0.04; cited from earlier work.
Series [4] has as its system estradiol 2-hydroxylation. In words: Urinary estrogen metabolites and ratios before and after I3C or high fiber diet. In kind it is in vivo, humans. The protocol: (§1) In this study by two of the inventors herein, which study was just recently published, certain dietary indoles were examined for their induction of hepatic estradiol 2-hydroxylation. In particular, indole-3-carbinol (I3C) was administered to humans at a rate of 500 mg daily for one week.
In conjunction with this study, certain comparative data were developed between the administration of I3C to women and men, and the administration of a high fiber diet to women. The comparative results are presented in Table 6A, B and C below, wherein Table 6A represents the data from women taking I3C, Table 6B represents the data respecting the women who were placed on a high fiber diet, and Table 6C represents the data gathered from the sample of men who were administered I3C.

Series [5] relates to hepatic estradiol 2-hydroxylation. As to the kind of experiment: Extent of estradiol 2-hydroxylation after indole-3-carbinol administration. In kind it is in vivo. The note with it: 500 mg daily for one week, humans. The protocol: as §1
In series [6] the test system is estradiol hydroxylation at both the C-2 and C-16α sites. The note with it: cited from earlier work.
Where [7] appears, read: after thyroxine administration versus baseline.

For the compound `C[C@]12CC[C@@H]3c4cc(O)c(O)cc4CC[C@H]3[C@@H]1CC[C@@H]2O` [2-hydroxyestradiol], the “Cross-reactivities of the 2OHE1 antiserum” value (“Cross-reactivities” below) in the series with 2OHE1 antiserum worked out at 1.7%.
Take `COc1cc2c(cc1O)CC[C@@H]1[C@@H]2CC[C@]2(C)C(=O)CC[C@@H]12` [2MeOE1, 2-methoxyestrone]: the “Cross-reactivities” value in the series with 2OHE1 antiserum worked out at 0.11%.
With `C[C@]12CC[C@@H]3c4ccc(O)cc4CC[C@H]3[C@@H]1C[C@@H](O)C2=O` [16αOHE1, 16α-hydroxyestrone], the “Cross-reactivities” value in the series with 2OHE1 antiserum was 0.03%.
Consider `CN/C(=N/CCSCc1nc[nH]c1C)NC#N` [Cimetidine], for which the “urinary excretion of 2-hydroxyestrone decreased” value in series [1] (800 mg per dose twice daily oral for two weeks, nine normal male volunteers, P<0.0002) is reported as “approximately 25%”. In series [1] (After Cimetidine 800 mg orally twice a day for 14 days, sum of estrone, estradiol, estriol, 16α-hydroxyestrone, 2-hydroxyestrone, n=9, before 10.7 ± 1.1, P 0.02), the “Urinary Excretion of Total estrogens” value is 9.9 ± 0.9 nmol/nmol of creatinine. The “Urinary Excretion of 16α-Hydroxyestrone” value in series [1] (After Cimetidine 800 mg orally twice a day for 14 days, timed overnight urine, mean ± SEM, n=9, before 1.08 ± 0.11, NS) was 1.05 ± 0.08 nmol/nmol of creatinine. For the same compound, in series [1] (After Cimetidine 800 mg orally twice a day for 14 days, timed overnight urine, mean ± SEM, n=9, before 1.28 ± 0.15, NS), the “Urinary Excretion of Estradiol” value is 1.25 ± 0.10 nmol/nmol of creatinine. In addition, the “Urinary Excretion of 2-Hydroxyestrone” value in series [1] (After Cimetidine 800 mg orally twice a day for 14 days, timed overnight urine, mean ± SEM, n=9, before 1.71 ± 0.20, P 0.0002) was 1.27 ± 0.19 nmol/nmol of creatinine. In addition, the “Urinary Excretion of Estrone” value in series [1] (After Cimetidine 800 mg orally twice a day for 14 days, timed overnight urine, mean ± SEM, n=9, before 3.80 ± 0.34, P 0.03) is listed as 3.32 ± 0.26 nmol/nmol of creatinine. Moreover, in series [1] (after Cimetidine treatment), the “ratio of 2-hydroxyestrone to estriol reduced” value is “approximately 40%”. Further, the 2-Hydroxyestrone/estriol in series [1] (urinary ratio After Cimetidine 800 mg orally twice a day for 14 days, mean ± SEM, n=9, before 0.74 ± 0.18, P 0.015) was 0.47 ± 0.10. Moreover, the 16α-hydroxylation of estradiol entry in series [2] is “unaffected”. The “serum concentration of estradiol increased” value in series [3] is reported as “approximately 20%”.
As to `C[C@]12CC[C@@H]3c4ccc(O)cc4CC[C@H]3[C@@H]1C[C@@H](O)[C@@H]2O` [E3, estriol], the “Cross-reactivities” value in the series with 2OHE1 antiserum is on record as 0.01%.
As to `OCc1c[nH]c2ccccc12` [I3C, indole-3-carbinol], the “[2OHE1]/[E3]” value in series [4] (Men Taking I3C (N=7), Post, Pre 1.06 ± 0.11, P <0.02) amounted to 2.04 ± 0.35; in series [4] (Women (N=5), Post, Pre 1.27 ± 0.30, P <0.005), 2.35 ± 0.50. Also, the “[E3]” value in series [4] (Men Taking I3C (N=7), Post, Pre 6.4 ± 1.8, P <0.006) came to 4.2 ± 1.3. Also, in series [4] (Men Taking I3C (N=7), Post, Pre 6.6 ± 2.3, NS), the “[2OHE1]” value was found to be 8.2 ± 3.5. Moreover, the “[E1]” value in series [4] (Men Taking I3C (N=7), Post, Pre 8.4 ± 1.8, NS) stood at 8.9 ± 2.3. Also, the “[E3]/[E1]” value in series [4] (Women (N=5), Post, Pre 1.04 ± 0.20, NS) is 0.74 ± 0.11. For the same compound, in series [4] (Women (N=5), Post, Pre 1.15 ± 0.24, P <0.05), the “[2OHE1]/[E1]” value came out at 1.53 ± 0.20. Further, in series [4] (conclusion from Tables 6A-C), the “induction of estradiol 2-hydroxylation” value is listed as “potent inducers”. The “extent of estradiol 2-hydroxylation” value in series [5] was “significantly increased”.
Take `N[C@@H](Cc1cc(I)c(Oc2cc(I)c(O)c(I)c2)c(I)c1)C(=O)O` [Thyroxine, thyroxine]: the “Urinary 16αOHE1” value in series [6] (Post: following two weeks of thyroxine (4.3 mcg/kg/d), mean ± SEM, Pre 2.07 ± 0.24, NS) is 2.24 ± 0.17 µg creatinine. In series [6] (Post: following two weeks of thyroxine (4.3 mcg/kg/d), mean ± SEM, Pre 2.78 ± 0.23, NS), the “Urinary E2” value was 3.03 ± 0.27 µg creatinine. For the same compound, in series [6] (Post: following two weeks of thyroxine (4.3 mcg/kg/d), mean ± SEM, Pre 2.88 ± 0.32, P 0.01), the “Urinary 2OHE1” value is 5.30 ± 0.85 µg creatinine. In series [6] (Post: following two weeks of thyroxine (4.3 mcg/kg/d), mean ± SEM, Pre 5.84 ± 0.88, NS), the “Urinary E3” value is listed as 5.37 ± 0.78 µg creatinine. Further, the “Urinary E1” value in series [6] (Post: following two weeks of thyroxine (4.3 mcg/kg/d), mean ± SEM, Pre 7.36 ± 0.39, NS) is on record as 7.30 ± 0.74 µg creatinine. Also, the “Urinary Total estrogens” value in series [6] (Post: following two weeks of thyroxine (4.3 mcg/kg/d), mean ± SEM, Pre 20.93 ± 1.58, NS) is 23.24 ± 2.41. µg creatinine. In series [6] (setting [7]), the “index [2OHE1]/[E3] change after thyroxine administration” value is reported as “nearly doubled” and the “urinary 2-hydroxyestrone after thyroxine administration” value was “significantly greater”. In addition, the “[2OHE1]/[E3]” value in series [6] (urinary ratio, Post: following two weeks of thyroxine (4.3 mcg/kg/d), Pre 0.56 ± 0.09, P 0.01) was 1.05 ± 0.14.
